Measured values taken from the CheMixHub ionic liquid set.

Experiment: xn = mol fraction of the nth substance listed

Cn1cc[n+](CCO)c1.[Cl-] + O
100 kPa
Conditions | electrical conductivity, 293.15 K [S/m] | electrical conductivity, 298.15 K [S/m] | electrical conductivity, 303.15 K [S/m] | electrical conductivity, 308.15 K [S/m] | electrical conductivity, 313.15 K [S/m] | viscosity, 293.15 K [mPa·s] | viscosity, 298.15 K [mPa·s] | viscosity, 303.15 K [mPa·s] | viscosity, 308.15 K [mPa·s] | viscosity, 313.15 K [mPa·s]
x1 = 3.478e-05 | 0.0241 | 0.0281 | 0.0319 | 0.036 | 0.04 | – | – | – | – | –
x1 = 5.784e-05 | 0.0382 | 0.0443 | 0.0496 | 0.056 | 0.062 | – | – | – | – | –
x1 = 9.73e-05 | 0.0597 | 0.0693 | 0.0776 | 0.0866 | 0.095 | 1.015 | 0.904 | 0.815 | 0.738 | 0.676
x1 = 0.0001191 | 0.0701 | 0.082 | 0.0913 | 0.1 | 0.11 | – | – | – | – | –
x1 = 0.0001798 | 0.0949 | 0.111 | 0.123 | 0.133 | 0.146 | – | – | – | – | –
x1 = 0.0002349 | 0.117 | 0.136 | 0.151 | 0.163 | 0.178 | 1.023 | 0.912 | 0.826 | 0.75 | 0.69
x1 = 0.0002827 | 0.133 | 0.154 | 0.171 | 0.183 | 0.2 | 1.025 | 0.914 | 0.829 | 0.753 | 0.694
x1 = 0.0003387 | 0.15 | 0.173 | 0.192 | 0.209 | 0.224 | – | – | – | – | –
x1 = 0.0003943 | 0.165 | 0.191 | 0.214 | 0.228 | 0.248 | 1.029 | 0.92 | 0.835 | 0.76 | 0.702
x1 = 0.000458 | – | – | – | – | – | 1.032 | 0.922 | 0.838 | 0.764 | 0.706
x1 = 0.0005686 | – | – | – | – | – | 1.036 | 0.926 | 0.844 | 0.77 | 0.713
x1 = 0.0007379 | – | – | – | – | – | 1.041 | 0.933 | 0.851 | 0.778 | 0.722
x1 = 0.0009513 | – | – | – | – | – | 1.048 | 0.94 | 0.86 | 0.787 | 0.732
x1 = 0.001272 | – | – | – | – | – | 1.056 | 0.949 | 0.872 | 0.799 | 0.746
x1 = 0.001562 | – | – | – | – | – | 1.063 | 0.957 | 0.882 | 0.809 | 0.757

CCCCCCCCCCCCCCCC[n+]1ccccc1.O=C([O-])C(O)c1ccccc1 + O
electrical conductivity [S/m], 101 kPa
Conditions | 293.15 K | 298.15 K | 303.15 K | 308.15 K | 313.15 K
x1 = 1.08e-06 | 0.00061 | 0.00068 | 0.00076 | 0.00083 | 0.0009
x1 = 1.98e-06 | 0.001 | 0.0012 | 0.0013 | 0.0014 | 0.0016
x1 = 2.88e-06 | 0.00147 | 0.0016 | 0.0018 | 0.002 | 0.0022
x1 = 3.96e-06 | 0.0019 | 0.0022 | 0.0024 | 0.0026 | 0.0029
x1 = 4.69e-06 | 0.0023 | 0.0026 | 0.0029 | 0.0031 | 0.0035
x1 = 5.95e-06 | 0.00281 | 0.0032 | 0.0035 | 0.0038 | 0.0042
x1 = 7.21e-06 | 0.00341 | 0.0038 | 0.0042 | 0.0046 | 0.0051
x1 = 8.83e-06 | 0.00406 | 0.0046 | 0.005 | 0.0055 | 0.006
x1 = 1.045e-05 | 0.00469 | 0.0053 | 0.0058 | 0.0065 | 0.0071
x1 = 1.207e-05 | 0.00516 | 0.0058 | 0.0064 | 0.0071 | 0.0079
x1 = 1.351e-05 | 0.00562 | 0.00631 | 0.007 | 0.0077 | 0.0085
x1 = 1.478e-05 | 0.00603 | 0.0068 | 0.0075 | 0.0083 | 0.0092
x1 = 1.622e-05 | 0.00644 | 0.0072 | 0.008 | 0.0089 | 0.0098
x1 = 1.766e-05 | 0.00687 | 0.0077 | 0.0085 | 0.0094 | 0.0104

F[B-](F)(F)F.[Li+] + CCCC[n+]1ccn(C)c1.N#C[N-]C#N
electrical conductivity [S/m], 101 kPa
Conditions | x2 = 0.8903 | x2 = 0.9069 | x2 = 0.933 | x2 = 0.9549 | x2 = 0.9799
288.15 K | – | 0.426 | 0.514 | 0.543 | 0.622
298.15 K | 0.595 | 0.679 | 0.8 | 0.842 | 0.972
333.15 K | 1.89 | 2.07 | 2.31 | 2.41 | 2.7

COP(=O)([O-])OC.Cn1cc[n+](C)c1 + CO
Conditions | viscosity [mPa·s]
293.15 K, 101 kPa, x2 = 0.6018 | 20.02
293.15 K, 101 kPa, x2 = 0.8998 | 1.927
298.15 K, 101 kPa, x2 = 0 | 291
298.15 K, 101 kPa, x2 = 0.2977 | 86.2
298.15 K, 101 kPa, x2 = 0.3984 | 54.2
303.15 K, 101 kPa, x2 = 0.2009 | 95.3
303.15 K, 101 kPa, x2 = 0.5028 | 24.98
308.15 K, 101 kPa, x2 = 0.5028 | 21.1
308.15 K, 101.33 kPa, x2 = 0 | 139.5
318.15 K, 101 kPa, x2 = 0.1054 | 71.5
318.15 K, 101 kPa, x2 = 0.7027 | 5.83
323.15 K, 101 kPa, x2 = 0.2977 | 31.01
323.15 K, 101 kPa, x2 = 0.5028 | 13.63

CCCCCC[n+]1ccn(C)c1.F[B-](F)(F)F + NC(N)=O + O
298.15 K, 100 kPa
Conditions | viscosity [mPa·s]
x2 = 0, x1 = 0.0153 | 2.79
x2 = 0.008814, x3 = 0.9759 | 2.96
x2 = 0.01758, x3 = 0.9671 | 2.88
x2 = 0.02591, x3 = 0.9588 | 2.91
x2 = 0.03448, x3 = 0.9502 | 2.92
x2 = 0.04235, x3 = 0.9424 | 2.94

COP(=O)([O-])OC.Cn1cc[n+](C)c1 + CC(C)O + O
100 kPa
Conditions | viscosity [mPa·s]
298.15 K, x2 = 0.248, x3 = 0.2507 | 83
303.15 K, x2 = 0.2, x3 = 0.1998 | 87
313.15 K, x2 = 0.148, x3 = 0.1518 | 81
323.15 K, x2 = 0.1, x3 = 0.0988 | 80
333.15 K, x2 = 0.044, x3 = 0.043 | 92

CCCCCCCCC(=O)O + CCCCCCCC[N+](CCCCCCCC)(CCCCCCCC)CCCCCCCC.[Br-]
Conditions | electrical conductivity [S/m]
298.1 K, 100 kPa, x2 = 0.333 | 4.5e-06
